The structures appear in SMILES notation.

The record followed here is patent US20060099681A1, “Human and mouse alkaline ceramidase 1 and skin diseases” (U.S. DEPARTMENT OF VETERANS AFFAIRS, priority 2004, published 2006).

For the assay, the target named is T1, mouse alkaline ceramidase 1 (maCER1) (Mus musculus, UniProt Q8R4X1).
T1 construct: The ORF of the mouse alkaline ceramidase was amplified from the mouse liver cDNA library; made in house; host or cells: Saccharomyces cerevisiae mutant strain Δypc1Δydc1 (microsomes, galactose-induced, pYES2-FLAG-maCER1)
T1 sequence (Q8R4X1 1-273): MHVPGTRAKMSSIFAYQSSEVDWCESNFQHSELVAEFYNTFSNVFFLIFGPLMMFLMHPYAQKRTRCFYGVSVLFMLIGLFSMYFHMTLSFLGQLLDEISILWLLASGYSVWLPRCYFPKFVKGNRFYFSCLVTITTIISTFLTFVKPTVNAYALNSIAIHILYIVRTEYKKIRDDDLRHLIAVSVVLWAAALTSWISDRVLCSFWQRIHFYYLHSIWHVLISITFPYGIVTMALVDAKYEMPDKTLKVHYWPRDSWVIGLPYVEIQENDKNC
Description: Ceramidase activity assay with maCER1-containing yeast microsomes (release of NBD-fatty acid from D-e-C12-NBD-ceramide). It counts as biochemical. The settings on record: FIG. 4C; for effect of sphingoid base on ceramidase activity (in words): same concentration range as sphingosine. The method, then:
The microsomes, as in FIGS. 2A-D were assayed for ceramidase activity using D-e-C12-NBD-ceramide (200 μM) as substrate at different pH in the presence of 0.2% NP-40 and 5 mM Ca^2+ (FIG. 4A), at pH 8.5 in the presence of different cations (FIG. 4B), or different sphingoid bases (FIG. 4C). Results are the mean±SD of three independent experiments performed in duplicate.
maCER1 was expressed in yeast cells as described (Reference 21). Briefly, the expression construct pYES2-FLAG-maCER1 or the empty vector pYES2-FLAG was transformed into the yeast strain Δypc1Δydc1. Expression of the FLAG-tagged maCER1 was induced by 2% galactose.
Ceramidase activity was determined by the release of NBD-fatty acid from fluorescent substrates, NBD-C12-ceramide, dihydroceramide, or phytoceramide as described (Reference 21). Briefly, 20 μl of microsomes (containing 10-20 μg proteins) in buffer B (25 mM Tris-HCl, pH 8.0, 5 mM CaCl2) was mixed with 20 μl of 200 μM NBD-ceramide in buffer B with 0.4% NP-40 in a 1.5 ml microfuge tube. After incubation at 37° C. for 30-60 min, the reactions were stopped by boiling for 5 min, and dried under a SpeedVec. The released NBD-fatty acid was separated from NBD-ceramide by TLC in a solvent of chloroform:methanol: ammonium hydroxide (90:30:0.5) and quantified by PhosphorImager set at the fluorescent mode. To determine the pH optimum of maCER1, the maCER1 microsomes were resuspended in buffer C (1 mM Tris-HCl, pH 7.4, containing 5 mM CaCl2). To determine a cation effect, the maCER1 microsomes were resuspended in buffer A without CaCl2.

Consider `CCCCCCCCCCCCCCC[C@@H](O)[C@@H](N)CO` [dihydrosphingosine, D-erythro-dihydrosphingosine], for which the “effect of sphingoid base on ceramidase activity (in words)” value is “neither phytosphingosine nor dihydrosphingosine in the same concentration range were inhibitory”.
On the same count and under the same terms, under `CCCCCCCCCCCCCC[C@@H](O)[C@@H](O)[C@@H](N)CO` [phytosphingosine, D-ribo-phytosphingosine] stands “neither phytosphingosine nor dihydrosphingosine in the same concentration range were inhibitory”.
Broadly, the IC50 is the point on the concentration scale where inhibition reaches its midpoint. On to `CCCCCCCCCCCCC/C=C/[C@@H](O)[C@@H](N)CO` [sphingosine, D-erythro-sphingosine], for which the IC50 (maCER1 microsomes, substrate D-e-C12-NBD-ceramide (200 μM), read-out: IC50 for the inhibition of ceramidase activity) was around 80 µM.
